Assay: recombinant barcode read abundance after kanamycin selection (control-corrected) (log10(CPM+1)); higher = more efficient recombination; sequences stand for … in AGTGCAGAGAAAATCGGCCAGTTTTCTCTGCCTGCAGTCCGCATGCCGT…AGATTTATGCAGCGGACTGCCTTTCTCCCAAAGTGATAAACCGGACAGTATCATGGACCGGTTTTCCCGGTAATCCGTATTTGCAAGGTTGGTTTCACT; site = the 11-nt target
Procedure, shortened: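 In E. coli, a pooled library matched targets to IS621 bridge RNA target-binding loops and was introduced alongside a donor plasmid. Cells went onto chloramphenicol/ampicillin/kanamycin with 0.1 mM IPTG or onto chloramphenicol/ampicillin LB agar as control, in duplicate. Recombination efficiency, from recombinant-junction barcodes as counts per million, is averaged and control-corrected. It is reported as log10(CPM+1).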
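Also: IS621 recombinase and bridge RNA in Escherichia coli cells.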

## GCCGATACTTGGGTTCTAACCTGTTGCCA (site AGTCTGCCTCA)
  recombinant barcode read abundance (log10): 0.134

## GCCGATACTTGGGTTCTAACCTGTTGCCA (site GCCGATACTTG)
  recombinant barcode read abundance (log10): 0

## GCCGATTCTTGGGTTCTAACCTGTTGCCT (site ACCGATTCTAT)
  recombinant barcode read abundance (log10): 0.0154

## GCCGATTCTTGGGTTCTAACCTGTTGCCT (site GCCGATTCTAG)
  recombinant barcode read abundance (log10): 0.0394

## GCCGCGACTTGGGTTCTAACCTGTTGCCT (site GCAGCGACTAG)
  recombinant barcode read abundance (log10): 0.207

## GCCGCGACTTGGGTTCTAACCTGTTGCCT (site GCCGCGACTAG)
  recombinant barcode read abundance (log10): 0.236

## GCCGCGACTTGGGTTCTAACCTGTTGCCT (site GCGGCGACTAG)
  recombinant barcode read abundance (log10): 0.204

## GCCGCGACTTGGGTTCTAACCTGTTGCCT (site GCTGCGACTAG)
  recombinant barcode read abundance (log10): 0.262

## GCCTACCCTTGGGTTCTAACCTGTTGCGG (site GCCGACCCTCG)
  recombinant barcode read abundance (log10): 0.0988

## GCCTACCCTTGGGTTCTAACCTGTTGCGG (site GCCTACCCTCC)
  recombinant barcode read abundance (log10): 0.483

## GCCTATTCTTGGGTTCTAACCTGTTGCGT (site GCCTATTCTAC)
  recombinant barcode read abundance (log10): 0.4

## GCCTATTCTTGGGTTCTAACCTGTTGCGT (site TCCGATTCTAC)
  recombinant barcode read abundance (log10): 0.0523

## GCCTGTTCTTGGGTTCTAACCTGTTGCCT (site GACTGTTCTAG)
  recombinant barcode read abundance (log10): 0.238

## GCCTGTTCTTGGGTTCTAACCTGTTGCCT (site GCCTGTTCTAG)
  recombinant barcode read abundance (log10): 0.462

## GCCTGTTCTTGGGTTCTAACCTGTTGCCT (site GGCTGTTCTAG)
  recombinant barcode read abundance (log10): 0.0257

## GCCTGTTCTTGGGTTCTAACCTGTTGCCT (site GTCTGTTCTAG)
  recombinant barcode read abundance (log10): 0.137

## GCGAACACTTGGGTTCTAACCTGTTGCTT (site GCGAACACTAA)
  recombinant barcode read abundance (log10): 1.9

## GCGAACACTTGGGTTCTAACCTGTTGCTT (site GCGAAGTCTAA)
  recombinant barcode read abundance (log10): 0.194

## GCGAGCCCTTGGGTTCTAACCTGTTGCGT (site GCGAGCCCTAC)
  recombinant barcode read abundance (log10): 2.52

## GCGAGCCCTTGGGTTCTAACCTGTTGCGT (site GCTAGCCCTCC)
  recombinant barcode read abundance (log10): 0.0583

## GCGCCCTCTTGGGTTCTAACCTGTTGCCG (site CAATTACCTAA)
  recombinant barcode read abundance (log10): 0.194

## GCGCCCTCTTGGGTTCTAACCTGTTGCCG (site GCGCCCTCTCG)
  recombinant barcode read abundance (log10): 0.606

## GCGCCTCCTTGGGTTCTAACCTGTTGCAT (site GCGACTCCTAT)
  recombinant barcode read abundance (log10): 0.144

## GCGCCTCCTTGGGTTCTAACCTGTTGCAT (site GCGCCTCCTAT)
  recombinant barcode read abundance (log10): 0.504

## GCGCCTCCTTGGGTTCTAACCTGTTGCAT (site GCGGCTCCTAT)
  recombinant barcode read abundance (log10): 0

## GCGCCTCCTTGGGTTCTAACCTGTTGCAT (site GCGTCTCCTAT)
  recombinant barcode read abundance (log10): 0.0165

## GCGCGCCCTTGGGTTCTAACCTGTTGCGG (site GCGCGCCCTCA)
  recombinant barcode read abundance (log10): 0.101

## GCGCGCCCTTGGGTTCTAACCTGTTGCGG (site GCGCGCCCTCC)
  recombinant barcode read abundance (log10): 1.63

## GCGCGTGCTTGGGTTCTAACCTGTTGCCT (site GCACGTGCTAG)
  recombinant barcode read abundance (log10): 1.11

## GCGCGTGCTTGGGTTCTAACCTGTTGCCT (site GCCCGTGCTAG)
  recombinant barcode read abundance (log10): 0.539

## GCGCGTGCTTGGGTTCTAACCTGTTGCCT (site GCGCGTGCTAG)
  recombinant barcode read abundance (log10): 0.584

## GCGCGTGCTTGGGTTCTAACCTGTTGCCT (site GCTCGTGCTAG)
  recombinant barcode read abundance (log10): 0.11

## GCGCTAGCTTGGGTTCTAACCTGTTGCCT (site ACGCTAGCTAG)
  recombinant barcode read abundance (log10): 0.125

## GCGCTAGCTTGGGTTCTAACCTGTTGCCT (site CCGCTAGCTAG)
  recombinant barcode read abundance (log10): 0.0832

## GCGCTAGCTTGGGTTCTAACCTGTTGCCT (site GCGCTAGCTAG)
  recombinant barcode read abundance (log10): 0.205

## GCGCTAGCTTGGGTTCTAACCTGTTGCCT (site TCGCTAGCTAG)
  recombinant barcode read abundance (log10): 0.111
